Experimental data published in US20240398781A1, “SPIROCYCLIC CYCLIC MODULATORS OF CHOLESTEROL BIOSYNTHESIS AND THEIR USE FOR PROMOTING REMYELINATION” (GENENTECH, INC., priority 2021, published 2024).

Legend:
human EBP = human EBP (Homo sapiens (Human), UniProt Q15125); test: Competition binding assay (SPA, [3H]-Ifenprodil) to determine compound affinity to EBP; details: [3H]-Ifenprodil 10 nM, HEK293 membrane overexpressing human EBP, Ki=IC50/(1+[L]/Kd); read-out: hEBP SPA Ki
How it was run: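 Membranes from HEK293 cells overexpressing human EBP, on SPA beads (0.3 mg beads, 5 µg membrane/well) in Tris/MgCl2/EDTA buffer pH 7.5 with 0.01% BSA and 0.1% DMSO, competed against [3H]-ifenprodil for 3 h to equilibrium. Compounds were tested at 1 µM single dose or 0.06 nM–5 µM; IC50 came from nonlinear fit, and Ki=IC50/(1+[L]/Kd).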

[1] = molecular target: human emopamil binding protein and human 7-dehydrocholesterol reductase co-expressing cells (hEBP-DHCR7 membrane) (Homo sapiens (Human), UniProt Q15125); test: Radioligand filter binding assay on hEBP-DHCR7 membrane; details: [3H]-(S)-6-(2-Methyl-3-(6-(trifluoromethyl)pyridin-3-yl)propyl)-2-thia-6-azaspiro[3.4]octane 2,2-dioxide radioligand, HEK293 membrane co-expressing hEBP and hDHCR7
How it was run: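 HEK293 cells transiently co-expressing human EBP and DHCR7 supplied whole-cell membranes (10 μg/well), incubated 3 h at 22 °C with [3H]-labelled spiro-octane dioxide ligand (added at 25 nM) and compound (0.06-5000 nM final, 8 doses, n=2). Bound ligand was collected on PEI-treated GF/B filters and counted by scintillation. IC50 was Hill-fitted from % inhibition and reported as Ki.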

human EBP, sequence (Q15125 whole entry): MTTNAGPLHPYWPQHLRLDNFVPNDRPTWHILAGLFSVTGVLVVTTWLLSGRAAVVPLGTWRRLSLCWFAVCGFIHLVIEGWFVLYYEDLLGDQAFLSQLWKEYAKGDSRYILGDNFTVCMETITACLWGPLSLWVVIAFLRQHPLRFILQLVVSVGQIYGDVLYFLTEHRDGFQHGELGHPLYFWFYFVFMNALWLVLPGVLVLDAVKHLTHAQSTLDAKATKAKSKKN
human emopamil binding protein and human 7-dehydrocholesterol reductase co-expressing cells (hEBP-DHCR7 membrane), sequence (Q15125 whole entry): as above

Ki (human EBP)	Ki [1]	Compound
110 nM	450 nM	Cn1nc(C(F)(F)F)cc1[C@H]1CC[C@@H](N2CCC3(CC2)CS(=O)(=O)C3)CC1 [Compound 25A, 7-((1s,4s)-4-(1-Methyl-3-(trifluoromethyl)-1H-pyrazol-5-yl)cyclohexyl)-2-thia-7-azaspiro[3.5]nonane 2,2-dioxide]
58 nM	270 nM	Cn1nc(C(F)(F)F)cc1[C@H]1CC[C@H](N2CCC3(CC2)CS(=O)(=O)C3)CC1 [Compound 25B, 7-((1r,4r)-4-(1-methyl-3-(trifluoromethyl)-1H-pyrazol-5-yl)cyclohexyl)-2-thia-7-azaspiro[3.5]nonane 2,2-dioxide]
37 nM	34 nM	CC(C)n1nc(-c2cncc(OC(F)F)c2)cc1[C@H]1CC[C@H](N2CCC3(C2)CS(=O)(=O)C3)CC1 [Compound 33A, 6-((1r,4r)-4-(3-(5-(Difluoromethoxy)pyridin-3-yl)-1-isopropyl-1H-pyrazol-5-yl)cyclohexyl)-2-thia-6-azaspiro[3.4]octane 2,2-dioxide]
33 nM	28 nM	CC(C)n1nc(-c2cncc(OC(F)F)c2)cc1[C@H]1CC[C@@H](N2CCC3(C2)CS(=O)(=O)C3)CC1 [Compound 33B, (Cis)-6-(4-(3-(5-(Difluoromethoxy)pyridin-3-yl)-1-isopropyl-1H-pyrazol-5-yl)cyclohexyl)-2-thia-6-azaspiro[3.4]octane 2,2-dioxide]
32 nM	59 nM	O=S1(=O)CC2(CCN([C@H]3CC[C@@H](c4cc(C(F)(F)F)nn4C4CC4)CC3)CC2)C1 [Compound 40A, 7-((1r,4r)-4-(1-cyclopropyl-3-(trifluoromethyl)-1H-pyrazol-5-yl)cyclohexyl)-2-thia-7-azaspiro[3.5]nonane 2,2-dioxide]
47 nM	183 nM	O=S1(=O)CC2(CCN([C@H]3CC[C@H](c4cc(C(F)(F)F)nn4C4CC4)CC3)CC2)C1 [Compound 40B, 7-((1s,4s)-4-(1-cyclopropyl-3-(trifluoromethyl)-1H-pyrazol-5-yl)cyclohexyl)-2-thia-7-azaspiro[3.5]nonane 2,2-dioxide]
16 nM	23 nM	Cc1cc(C(F)(F)F)cnc1[C@H]1CC[C@H](N2CCC3(C2)CS(=O)(=O)C3)CC1 [Compound 47B, 6-((1r,4r)-4-(3-methyl-5-(trifluoromethyl)pyridin-2-yl)cyclohexyl)-2-thia-6-azaspiro[3.4]octane 2,2-dioxide]

More lines, now with the values behind:

Compound	Ki (human EBP)	Ki [1]
O=S1(=O)CC2(CCN([C@H]3CC[C@H](c4cc(C(F)(F)F)nn4C4CCC4)CC3)C2)C1 [Compound 23B, 6-((1r,4r)-4-(1-Cyclobutyl-3-(trifluoromethyl)-1H-pyrazol-5-yl)cyclohexyl)-2-thia-6-azaspiro[3.4]octane 2,2-dioxide]	21 nM	12 nM
O=S1(=O)CC2(CCN([C@H]3CC[C@H](c4cc(C(F)(F)F)n(C5CCC5)n4)CC3)C2)C1 [Compound 24, 6-((1r,4r)-4-(1-cyclobutyl-5-(trifluoromethyl)-1H-pyrazol-3-yl)cyclohexyl)-2-thia-6-azaspiro[3.4]octane 2,2-dioxide]	28 nM	11 nM
Cc1cc(C(F)(F)F)ncc1N1CCC(N2CCC3(C2)CS(=O)(=O)C3)CC1 [Compound 28, 6-(1-(4-Methyl-6-(trifluoromethyl)pyridin-3-yl)piperidin-4-yl)-2-thia-6-azaspiro[3.4]octane 2,2-dioxide]	33 nM	30 nM
Cc1nc(C(F)(F)F)ccc1N1CCC(N2CCC3(C2)CS(=O)(=O)C3)CC1 [Compound 29, 6-(1-(2-methyl-6-(trifluoromethyl)pyridin-3-yl)piperidin-4-yl)-2-thia-6-azaspiro[3.4]octane 2,2-dioxide]	45 nM	230 nM
O=S1(=O)CC2(CCN(C3CCN(c4ncc(C(F)(F)F)cc4Cl)CC3)C2)C1 [Compound 30, 6-(1-(3-chloro-5-(trifluoromethyl)pyridin-2-yl)piperidin-4-yl)-2-thia-6-azaspiro[3.4]octane 2,2-dioxide]	39 nM	13 nM
Cc1cc(F)cnc1N1CCC(N2CCC3(C2)CS(=O)(=O)C3)CC1 [Compound 31, 6-(1-(5-fluoro-3-methylpyridin-2-yl)piperidin-4-yl)-2-thia-6-azaspiro[3.4]octane 2,2-dioxide]	59 nM	84 nM
O=S1(=O)CC2(CCN(C3CCN(c4ncc(C(F)(F)F)cc4F)CC3)C2)C1 [Compound 32, 6-(1-(3-fluoro-5-(trifluoromethyl)pyridin-2-yl)piperidin-4-yl)-2-thia-6-azaspiro[3.4]octane 2,2-dioxide]	24 nM	11 nM
CC(C)n1nc(N2CC(F)(F)C2)cc1[C@H]1CC[C@H](N2CCC3(C2)CS(=O)(=O)C3)CC1 [Compound 35, 6-((1r,4r)-4-(3-(3,3-Difluoroazetidin-1-yl)-1-isopropyl-1H-pyrazol-5-yl)cyclohexyl)-2-thia-6-azaspiro[3.4]octane 2,2-dioxide]	180 nM	280 nM
